Source: patent US20070203244A1, “INHIBITORS OF MEMBRANE TYPE-1 MATRIX METALLOPROTEINASE FOR THE TREATMENT OF INSULIN-DEPENDENT DIABETES MELLITUS” (priority 2006, published 2007)
Each block holds one molecule with its values, some of them ahead of it.

What was measured:
MMP-9 = MMP-9 (Homo sapiens, UniProt P14780); details: preclinical studies; cited from earlier work
MMP-2 = target: T1, MMP-2 (Homo sapiens, UniProt P08253); details: preclinical studies; cited from earlier work
T1 sequence (P08253 110-660): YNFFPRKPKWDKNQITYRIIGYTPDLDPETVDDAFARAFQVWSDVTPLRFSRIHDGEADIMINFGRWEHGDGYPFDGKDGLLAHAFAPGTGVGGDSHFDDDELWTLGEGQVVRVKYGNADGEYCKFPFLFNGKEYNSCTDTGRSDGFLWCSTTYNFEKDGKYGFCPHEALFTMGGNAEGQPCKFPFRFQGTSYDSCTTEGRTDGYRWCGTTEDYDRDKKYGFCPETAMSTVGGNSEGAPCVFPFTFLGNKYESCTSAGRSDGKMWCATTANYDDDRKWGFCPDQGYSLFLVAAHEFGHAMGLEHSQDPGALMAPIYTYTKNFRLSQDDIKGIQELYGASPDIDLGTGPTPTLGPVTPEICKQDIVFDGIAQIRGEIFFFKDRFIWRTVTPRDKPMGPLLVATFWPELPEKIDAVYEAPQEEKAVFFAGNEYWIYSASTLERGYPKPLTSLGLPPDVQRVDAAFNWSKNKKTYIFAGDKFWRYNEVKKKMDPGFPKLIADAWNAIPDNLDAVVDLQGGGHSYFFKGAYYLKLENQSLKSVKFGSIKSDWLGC

[1] = cited from earlier work
[2] = test system: CD44 shedding in IS-CD8+ cells; experiment: CD44 shedding in adherent IS-CD8+ cells, Western blotting; type: cell-based, NOD mouse
Protocol: Western Blotting—IS-CD8^+ cells were surface biotinylated for 1 h at 4° C. with 0.1 mg/ml sulfo-NHS-LC-biotin (Pierce, Rockford, Ill.). Following washes to remove biotin, cells were co-incubated for 2 h with MT1-MMP-CAT in serum-free, unsupplemented Click's medium. The cells were then lysed with 50 mM N-octyl-β-D-glucopyranoside in phosphate-buffered saline supplemented with 1 mM CaCl2, 1 mM MgCl2, and protease inhibitor mixture containing phenylmethylsulfonyl fluoride (1 mM) and aprotinin, pepstatin, and leupeptin (1 μg/ml each). Biotin-labeled CD44 was captured from the cell lysate and from the medium aliquots on streptavidin-agarose beads. The captured samples were examined by Western blotting with the CD44 (clone IM7.8.1) antibody to determine the released, soluble, CD44 ectodomain in the medium samples and the residual, membrane-anchored, cellular CD44 in the cell lysates.
Western blotting—IS-CD8^+ cells were surface biotinylated for 1 hr at 4° C. with 0.1 mg/ml of sulfo-NES-LC-biotin (Pierce). Following washes to remove biotin, the labeled cells were allowed to adhere in serum-free medium to plastic coated with 2% type I collagen/gelatin for 4 h or were kept in suspension. Under these experimental conditions, the vast majority of the cells became attached to gelatin. […] The cells were then lysed with 50 mM N-octyl-β-D-glucopyranoside in PBS supplemented with 1 mM CaCl2, 1 mM MgCl2, and protease inhibitor cocktail containing phenylmethylsulfonyl fluoride (1 mM) and aprotinin, pepstatin, and leupeptin (1 μg/ml each). Biotin-labeled CD44 was captured from the cell lysate and from the medium aliquots on streptavidine-Agarose beads. The captured samples were examined by Western blotting with the CD44 (clone IM7.8.1) antibody to determine the released, soluble, CD44 ectodomain in the medium samples and the residual, membrane-anchored, cellular CD44 in the cell lysates.

IS-CD8+ T cells = experiment: Homing of DiI-labeled IS-CD8+ T cells into the pancreatic islets of NOD mice; type: in vivo; details: Example 3: inhibitor i.p. before cells; 24 h; SB-3CT and EGCG at much higher concentrations than AG3340
Protocol: Fluorescent Tracing and Morphometric Analysis—For trafficking studies, IS-CD8^+ T cells were incubated at 1×10^7 cells/ml for 30 min at 37° C. in the dark in complete Click's medium containing 5% fetal calf serum and 0.0075 mg/ml of the fluorescent dye 1,1′-didodecyl-3,3,3′,3′-tetramethylindocarbocyanine perchlorate (DiI; Molecular Probes, Eugene, Oreg.). After incubation, the cells were washed three times with phosphatebuffered saline to remove excess DiI. Labeled IS-CD8^+ cells (1×10^7 cells) were injected intravenously in 0.2 ml of phosphate-buffered saline into irradiated (725 rads, 24 h in advance) NOD mice. Mice were sacrificed 24 h after injection of DiI-labeled cells. The spleen and the pancreata were excised and fixed in 0.1 M periodate-lysine-paraformaldehyde phosphate buffer. The organs were next sucrose-saturated, freeze-molded in OCT compound (Sakura Finetek Inc., Torrance, Calif.), and freeze-sectioned. 7-μm-thick cryostat sections of the entire pancreas were prepared at 60-μm intervals using a Leica CM1900 cryotom. Distribution of DiI-labeled CD8^+ cells within the islets was examined using a fluorescent microscope. At least 100 individual islets per mouse (4-5 mice/experimental group) were examined. The characteristic morphology of the islets is easily identified on the cryosections. DiI-labeled cells were counted within the area relevant to each individual islet (see FIG. 3 for a representative image; the islet-relevant area is depicted by the solid white line, and the islet boundaries are shown by the white dotted line). The position of each IS-CD8^+ labeled cell was determined relative to the islet boundary. The labeled cells localized within the islet boundary were considered to be “inside,” whereas the labeled cells adjacent to the islet but outside of the islet boundary were considered to be “at the entrance.” This method has been described in substantial detail (Savinov, A. Y., et al. (2003), and Savinov, A. Y., et al. (2001), which are herein incorporated by reference in their entirety for their teaching of these methods).
Fluorescent tracing and morphometric analysis—For trafficking studies, IS-CD8^+ T cells were incubated at 1×10^7 cells/ml for 30 min at 37° C. in the dark in the complete Click's medium containing 5% FCS and 0.0075 mg/ml of fluorescent dye 1,1′-didodecyl-3,3,3′,3′-tetramethylindocarbocyanine perchlorate (DiI; Molecular Probes). After incubation, the cells were washed three times with PBS to remove excess DiI. Labeled IS-CD8^+ cells (1×10^7 cells) were intravenously injected in 0.2 ml of PBS into irradiated (725 Rad, 24 h in advance) NOD mice. Mice were sacrificed 24 h after injection of DiI-labeled cells. […] In 24 h, the spleen and the pancreata were excised and fixed in 0.1 M periodate-lysine-paraformaldehyde phosphate buffer. The organs were next sucrose-saturated, freeze-molded in OCT compound (Sakura Finetek Inc.) and freeze-sectioned. 7-μm-thick cryostat sections of the entire pancreas were prepared at the 60 μm intervals using a Leica CM1900 cryotom. Distribution of DiI-labeled CD8^+ cells within the islets was examined using a fluorescent microscope. At least 100 individual islets per mouse, 4-5 mice per each experimental group, were examined. The characteristic morphology of the islets is easily identified on the cryosections. DiI-labeled cells were counted within the area relevant to each individual islet. The position of each IS-CD8^+ labeled cell was determined relative to the islet boundary. […]

MT1-MMP = target: T2, MT1-MMP (Mus musculus, UniProt P53690); experiment: MT1-MMP-dependent MMP-2 activation in adherent IS-CD8+ cells, gelatin zymography; type: cell-based, NOD mouse; design: inhibition of MMP-2 activation: dose or concentration left out as unconfirmed
T2 construct: Endogenous MT1-MMP is latent in non-adherent IS-CD8^+ cells; endogenous in cells; host or cells: IS-CD8+ T cells (TGNFC8 clone, NOD mouse), adherent to gelatin
Protocol: MT1-MMP-dependent MMP-2 Activation and Gelatin Zymography—IS-CD8^+ cells (1×10^6) were either allowed to adhere for 4 h in serum-free unsupplemented Click's medium to plastic coated with 2% gelatin or kept in solution. Under these experimental conditions, the vast majority of cells became attached to gelatin. In 4 h, media samples (30 μl each) were withdrawn and analyzed by gelatin zymography (Deryugina, E. I., et al. (2001)) to identify the proteolytic activity and the activation status of MMP-2 naturally synthesized by IS-CD8^+ cells. Where indicated, cells were supplemented with external purified pro-MMP-2 (20 ng). Pro-MMP-2 was isolated from a conditioned medium of p2AHT2A72 cells derived from an HT1080 fibrosarcoma cell line sequentially transfected with the E1A and MMP-2 cDNAs (Strongin, A. Y., et al. (1995)).
MT1-MMP-dependent MMP-2 activation and gelatin zymography—IS-CD8^+ cells (1×10^6) were either allowed to adhere for 4 h in serum-free unsupplemented Click's medium to the plastic coated with 2% gelatin or kept in solution. In 18 h, media samples (30 μl each) were withdrawn and analyzed by gelatin zymography (Deryugina, E. I., et al. (2001)) to identify the proteolytic activity and the activation status of MMP-2 naturally synthesized by IS-CD8^+ cells. […] Pro-MMP-2 was isolated from a conditioned medium of p2AHT2A72 cells derived from an HT1080 fibrosarcoma cell line sequentially transfected with the E1A and MMP-2 cDNAs (Strongin, A. Y., et al. (1995)).

NOD mice = experiment: Adoptively transferred diabetes in NOD mice (IS-CD8+ cells); type: in vivo; details: Example 3: i.p. 30 min prior to cells, then every other day; inhibitor diluted to 4 mg/ml
Protocol: IS-CD8^+ cells were labeled with DiI and then injected in NOD mice. In 24 h, the labeled cells with their intra-islet location were counted in the cryostat sections of the entire pancreas. […] IS-CD8^+ cells were injected in NOD mice. […] PBS containing […] DMSO was used as a vehicle control. The onset of diabetes was monitored daily by measuring urine glucose levels with the Diastix reagent strips. Mice with urine glucose levels of ≧2000 mg/dl for 3 consecutive days were considered diabetic. * and **, p=0.02 and p=0.015 by Fisher's test, respectively.
Mice were monitored for 21 days. […] The onset of diabetes was identified by assessing urine glucose levels with Diastix® strips (Bayer). Mice with urine glucose levels of >2000 mg/dl for 3 consecutive days were considered diabetic. […] The level of glucose in the urine closely follows that in the blood (Traisman, H. S., and Greenwood, R. D. (1973)). The measurement of glucose in urine is a widely accepted method to follow the development of diabetes in NOD mice (Pomerleau, D. P., et al. (2005)).

[3] = human TIMP proteins; cited from earlier work

Chain of MMP-9 (P14780 94-707, species assumed): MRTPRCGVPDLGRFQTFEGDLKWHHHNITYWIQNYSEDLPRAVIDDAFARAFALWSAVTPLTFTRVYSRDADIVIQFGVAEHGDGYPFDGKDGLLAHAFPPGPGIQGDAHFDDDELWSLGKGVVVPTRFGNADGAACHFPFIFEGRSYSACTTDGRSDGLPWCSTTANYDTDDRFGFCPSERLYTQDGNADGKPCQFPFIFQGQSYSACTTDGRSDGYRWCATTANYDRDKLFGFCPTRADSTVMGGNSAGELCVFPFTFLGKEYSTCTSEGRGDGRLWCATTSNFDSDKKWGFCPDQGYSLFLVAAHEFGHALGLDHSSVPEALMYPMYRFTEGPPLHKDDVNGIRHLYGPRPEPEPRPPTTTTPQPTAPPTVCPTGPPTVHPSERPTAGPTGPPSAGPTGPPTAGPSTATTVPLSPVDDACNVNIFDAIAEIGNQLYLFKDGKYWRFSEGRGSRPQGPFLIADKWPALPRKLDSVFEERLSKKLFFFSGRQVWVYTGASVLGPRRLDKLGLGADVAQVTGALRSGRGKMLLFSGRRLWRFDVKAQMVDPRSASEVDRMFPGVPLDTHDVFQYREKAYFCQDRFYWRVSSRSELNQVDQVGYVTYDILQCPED

Molecule: CNC(=O)[C@@H](NC(=O)[C@H](CC(C)C)NC(=O)[C@@H](S)CCN1C(=O)N(C)C(C)(C)C1=O)C(C)(C)C [BMS-275291]
inhibitory activity against MMP-9 (MMP-9): potent inhibitory activity
inhibitory activity against MMP-2 (MMP-2): potent inhibitory activity

Molecule: COc1ccc(S(=O)(=O)N(Cc2cccnc2)[C@@H](C(=O)NO)C(C)C)cc1 [CGS-27023A]
plasma concentrations relative to in vitro IC50s for MMP-2,-3 and -9 ([1]; clinically tolerable doses): severalfold greater
time for which plasma concentrations above the in vitro IC50s for MMP-2,-3 and -9 were sustained after dosing ([1]; clinically tolerable doses): > 10 h
dose at which major toxic effects (cutaneous and musculoskeletal toxicity) were encountered ([1]; oral, continuous dosing, 150 to 600 mg in divided doses): exceeding 300 mg twice a day

inhibition of MMP-2 activation (MT1-MMP; Example 3: EGCG): partial inhibition
Molecule: O=C(O[C@@H]1Cc2c(O)cc(O)cc2O[C@@H]1c1cc(O)c(O)c(O)c1)c1cc(O)c(O)c(O)c1 [EGCG, (−)-epigallocatechin 3-gallate]
effect on CD44 proteolysis ([2]; Example 3: EGCG 500 mM): without any significant effect
homing of IS-CD8+ cells inside the islets (IS-CD8+ T cells): did not affect
delay of the transferred diabetes onset (NOD mice): no delay

Molecule: O=S(=O)(CC1CS1)c1ccc(Oc2ccccc2)cc1 (stereo not drawn) [SB-3CT]
shedding of CD44 in adherent cells ([2]; Example 3): no effect
homing of IS-CD8+ cells inside the islets (IS-CD8+ T cells): did not affect
activation of MMP-2 in adherent cells (MT1-MMP; Example 3: inhibitors added for 18 h): no effect
delay of the transferred diabetes onset (NOD mice): no delay

activation of MMP-2 in adherent cells (MT1-MMP; Example 2: AG3340 50 μM, TIMP-1 and TIMP-2 100 ng/ml, 18 h): no effect
Molecule: TIMP-1: native tissue inhibitor of MMP; a poor inhibitor of MT1-MMP
shedding of CD44 in adherent cells ([2]; Example 2: AG3340 50 μM, TIMP-1 and TIMP-2 100 ng/ml): minor but noticeable inhibition
isoelectric point [3]: 8.00

B1: TIMP-4: native tissue inhibitor of MMP, 22 kDa, SEQ ID NO:6 (protein, UniProt Q99727 30-224, looked up)
Metalloproteinase inhibitor 4: CSCAPAHPQQHICHSALVIRAKISSEKVVPASADPADTEKMLRYEIKQIKMFKGFEKVKDVQYIYTPFDSSLCGVKLEANSQKQYLLTGQVLSDGKVFIHLCNYIEPWEDLSLVQRESLNHHYHLNCGCQITTCYTVPCTISAPNECLWTDWLLERKLYGYQAQHYVCMKHVDGTCSWYRGHLPLRKEFVDIVQP
isoelectric point [3]: 7.34

B2: TIMP-3: native tissue inhibitor of MMP, SEQ ID NO:4 (protein)
chain: MTPWLGLIVLLGSWSLGDWGAEACTCSPSHPQDAFCNSDIVIRAKVVGKKLVKEGPFGTLVYTIKQMKMYRGFTKMPHVQYIHTEASESLCGLKLEVNKYQYLLTGRVYDGKMYTGLCNFVERWDQLTLSQRKGLNYRYHLGCNCKIKSCYYLPCFVTSKNECLWTDMLSNFGYPGYQSKHYACIRQKGGYCSWYRGWAPPDKSIINATDP
isoelectric point [3]: 9.04
